According to patent US20230112845A1, “COMPOSITIONS OF BERBERINE URSODE[…] METHODS THEREOF FOR TREATING FATTY LIVER DISEASE, DIABETES AND HYPERLIPIDEMIA” (SHENZHEN HIGHTIDE BIOPHARMACEUTICAL LTD., priority 2020, published 2023):
Entries after “also recorded” stand apart in the source; their conditions may differ.

How the values were obtained:
[1] = system: patients with presumed NASH and type 2 diabetes; experiment: Phase 2 trial: adverse events, safety and tolerability; format: in vivo, human; settings: for Subjects with TEAEs Related to Study Drug: Diarrhea, number (%) / Subjects with TEAEs Related to Study Drug: GERD, number (%) / Subjects with TEAEs Related to Study Drug: Nausea, number (%) / Subjects with TEAEs requiring discontinuation of study drug: Abdominal distension, number (%) / Subjects with TEAEs requiring discontinuation of study drug: Acute myocardial infarction, number (%) / Subjects with TEAEs requiring discontinuation of study drug: Diarrhea, number (%) / Subjects with TEAEs requiring discontinuation of study drug: GERD, number (%) / Subjects with TEAEs requiring discontinuation of study drug: Headache and Facial Rash, number (%) / Subjects with TEAEs requiring discontinuation of study drug: Melena, number (%): placebo 0; for Subjects with TEAEs Related to Study Drug: Headache, number (%) / Subjects with TEAEs requiring discontinuation of study drug: Bladder Cancer, number (%): placebo 1 (3%)
Procedure: (§1) A prospective, randomized, placebo-controlled trial of two doses of BUDCA administered orally was conducted in a cohort of 100 subjects with fatty liver disease and diabetes. Treatment was for 18 weeks and endpoints measured included reduction in liver fat content measured by […] proton density fat fraction, improvement in glycemic control, changes in liver-associated enzymes, safety and tolerability.
(§2) Patients with diabetes and presumed NASH were randomized into one of three treatment groups, as follows: 1) BUDCA 500 mg BID 2) 1,000 mg BID and 3) matching placebo. Presumed NASH was defined based largely on magnetic resonance imaging derived proton density fat fraction (MRI-PDFF) of 10% or more. Additional inclusion criteria further enriched the study population for having NASH by virtue of requiring corrected T1 (cT1) of more than 830 milliseconds and elevated serum aspartate aminotransferase (AST)≥20 units per liter (6). Subjects had to be overweight or obese with body mass index of 25 kg/m^2 or more.
(§3) Descriptive Statistics were used to summarize continuous data, and frequencies and percentages were used to summarize categorical data. The Safety Set consisted of all subjects who received at least one dose of study treatment. The Modified Efficacy Set is a subset of the Safety Set consisting of subjects that had at least one post-dose MRI-PDFF assessment. […] The primary endpoint was an absolute change from Baseline to Week 18 (or ET) in Liver Fat Content. Primary Endpoint summary measures were provided in both the Efficacy and Modified Efficacy sets, with the Efficacy Set prespecified as the primary analysis set. All other endpoints were prespecified to use the Modified Efficacy Set. Comparisons between active treatment groups relative to placebo were tested using Analysis of Covariance (ANCOVA) with treatment group as a fixed effect and baseline value of the parameters of interest as covariates. ANCOVA based LS Means and raw means have been reported. For statistical analysis of laboratory parameters (i.e. P-values), multiple imputation was used to take missing data into account. A two-sided alpha level of 0.05 without adjustment for multiple tests was used to indicate statistical significance. Analyses were performed using SAS System version 9.4.

[2] = system: patients with presumed NASH and type 2 diabetes; experiment: Phase 2 randomized placebo-controlled trial, 18 weeks: liver fat content (MRI-PDFF), glycemic control, liver enzymes, lipids, body weight, fibrosis markers; format: in vivo, human; settings: 500 mg BID, 18 weeks
Description: The aim of this study was to determine the effect of two different doses of BUDCA on liver fat content (LFC) in patients with diabetes and presumed NASH when administered for 18 weeks. This phase 2 clinical trial tested the effect of BUDCA in patients with fatty liver disease and diabetes. The group taking the higher dose of this new drug had significant reductions in the amount of fat in their liver as well as improvement in their diabetes.
as §1, §2
Study subjects underwent an initial screening evaluation, including measurement of LFC by MRI-PDFF. Subjects were excluded if they had known liver disease other than fatty liver disease or a history of excessive alcohol consumption. Although liver biopsies were not done as a part of this study, subjects with clear evidence of cirrhosis were excluded, based upon a platelet count of less than 150,000/mm^3, serum albumin levels less than […] or a current or previous history of clinical hepatic decompensation.
Those who were deemed eligible were then randomized into one of the three treatment groups described above and underwent a further baseline evaluation at the time of randomization and initial dosing. Subjects were permitted to continue their current treatment regimen for diabetes provided they had been on a stable dose regimen for at least 90 days.
LFC was measured at baseline and after 18 weeks of therapy. In addition, changes in liver chemistry tests, measures of glycemic control and serum lipid levels were also assessed during and at the end of treatment.
as §3
Effects of treatment with BUDCA on AST to Platelet Ratio Index (APRI) and Fibrosis-4 (FIB-4) were also measured.

With COc1ccc2cc3[n+](cc2c1OC)CCc1cc2c(cc1-3)OCO2.C[C@H](CCC(=O)[O-])[C@H]1CC[C@H]2[C@@H]3[C@@H](O)C[C@@H]4C[C@H](O)CC[C@]4(C)[C@H]3CC[C@]12C [BUDCA, berberine ursodeoxycholate] as the compound, how does the tolerability ([1]; 500 mg BID and 1,000 mg BID, 18 weeks) read?
Its tolerability is “generally well tolerated; also recorded: relatively well tolerated”.

What about the “Subjects with TEAEs Related to Study Drug: Diarrhea, number (%)” value ([1]; 500 mg BID, N = 33) of the same compound?
The value was 4 (12%).

What about the “Subjects with TEAEs Related to Study Drug: GERD, number (%)” value ([1]; 500 mg BID, N = 33) of the same compound?
The value was 2 (6%).

What about the “Subjects with TEAEs Related to Study Drug: Nausea, number (%)” value ([1]; 500 mg BID, N = 33) of the same compound?
Its value is 1 (3%).

And the “Subjects with TEAEs requiring discontinuation of study drug: Abdominal distension, number (%)” value ([1]; 500 mg BID, N = 33)?
Its value is 0.

What about the “Subjects with TEAEs requiring discontinuation of study drug: Acute myocardial infarction, number (%)” value ([1]; 500 mg BID, N = 33) of the same compound?
Its value is 0.

And the “Subjects with TEAEs requiring discontinuation of study drug: Diarrhea, number (%)” value ([1]; 500 mg BID, N = 33)?
The value was 0.

And the “Subjects with TEAEs requiring discontinuation of study drug: GERD, number (%)” value ([1]; 500 mg BID, N = 33)?
Its value is 1 (3%).

What about the “Subjects with TEAEs requiring discontinuation of study drug: Headache and Facial Rash, number (%)” value ([1]; 500 mg BID, N = 33) of the same compound?
The value was 0.

And the “Subjects with TEAEs requiring discontinuation of study drug: Melena, number (%)” value ([1]; 500 mg BID, N = 33)?
The value was 0.

And the “Subjects with TEAEs Related to Study Drug: Headache, number (%)” value ([1]; 500 mg BID, N = 33)?
The value was 2 (6%).

And the “Subjects with TEAEs requiring discontinuation of study drug: Bladder Cancer, number (%)” value ([1]; 500 mg BID, N = 33)?
The value was 0.

What about the “Subjects with TEAEs Related to Study Drug: Diarrhea, number (%)” value ([1]; 1,000 mg BID, N = 34) of the same compound?
Its value is 9 (26%).

What about the “Subjects with TEAEs Related to Study Drug: GERD, number (%)” value ([1]; 1,000 mg BID, N = 34) of the same compound?
The value was 0.

And the “Subjects with TEAEs Related to Study Drug: Nausea, number (%)” value ([1]; 1,000 mg BID, N = 34)?
The value was 5 (15%).

And the “Subjects with TEAEs requiring discontinuation of study drug: Abdominal distension, number (%)” value ([1]; 1,000 mg BID, N = 34)?
The value was 1 (3%).

And the “Subjects with TEAEs requiring discontinuation of study drug: Acute myocardial infarction, number (%)” value ([1]; 1,000 mg BID, N = 34)?
The value was 1 (3%).

And the “Subjects with TEAEs requiring discontinuation of study drug: Diarrhea, number (%)” value ([1]; 1,000 mg BID, N = 34)?
Its value is 2 (6%).

What about the “Subjects with TEAEs requiring discontinuation of study drug: GERD, number (%)” value ([1]; 1,000 mg BID, N = 34) of the same compound?
The value was 1 (3%).

And the “Subjects with TEAEs requiring discontinuation of study drug: Headache and Facial Rash, number (%)” value ([1]; 1,000 mg BID, N = 34)?
The value was 2 (6%).

And the “Subjects with TEAEs requiring discontinuation of study drug: Melena, number (%)” value ([1]; 1,000 mg BID, N = 34)?
The value was 1 (3%).

And the “Subjects with TEAEs Related to Study Drug: Headache, number (%)” value ([1]; 1,000 mg BID, N = 34)?
Its value is 1 (3%).

What about the “Subjects with TEAEs requiring discontinuation of study drug: Bladder Cancer, number (%)” value ([1]; 1,000 mg BID, N = 34) of the same compound?
Its value is 0.

What about the “serious adverse event in the high dose group, relation to study drug” value ([1]; 1,000 mg BID, one serious adverse event) of the same compound?
The value was “not related to the study drug”.

What about the “Absolute Change in LFC (%), Mean” value ([2]; Efficacy Set, N 30, placebo −2.0) of the same compound?
Its value is −2.9%.

And the “Relative Change in LFC (%), Mean” value ([2]; Efficacy Set, N 30, placebo −8.3)?
Its value is −15.1%.

And the “Absolute Change in LFC (%), LS Mean” value ([2]; Efficacy Set, placebo −1.8, P 0.199)?
The value was −3.2%.

And the “Relative Change in LFC (%), LS Mean” value ([2]; Efficacy Set, placebo −8.2, P 0.196)?
Its value is −15.9%.

What about the “Mean change in LDL-c (mg/dL), Mean” value ([2]; Modified Efficacy Set, N 27, placebo 0) of the same compound?
Its value is 5 mg/dL.

And the “Mean change in HbA1c (%), Mean” value ([2]; Modified Efficacy Set, N 29, placebo 0.1)?
Its value is −0.3%.

And the “Relative change in GGT (%), Mean” value ([2]; Modified Efficacy Set, N 29, placebo 5)?
Its value is −23%.

What about the “Mean change in TG (mg/dL), Mean” value ([2]; Modified Efficacy Set, N 29, placebo 18) of the same compound?
The value was -41 mg/dL.

What about the “Mean change in GGT (U/L), Mean” value ([2]; Modified Efficacy Set, N 29, placebo −2) of the same compound?
The value was −19 U/L.

What about the “Mean change in ALT (U/L), Mean” value ([2]; Modified Efficacy Set, N 29, placebo −3) of the same compound?
Its value is −4 U/L.

What about the “Relative change in ALT (%), Mean” value ([2]; Modified Efficacy Set, N 29, placebo −6) of the same compound?
The value was −6%.

What about the “Mean change in HbA1c (%), LS Mean” value ([2]; Modified Efficacy Set, placebo 0.1, P 0.029) of the same compound?
Its value is −0.4%.

And the “Mean change in LDL-c (mg/dL), LS Mean” value ([2]; Modified Efficacy Set, placebo 1, P 0.955)?
Its value is 1 mg/dL.

What about the “Mean change in TG (mg/dL), LS Mean” value ([2]; Modified Efficacy Set, placebo 19, P 0.041) of the same compound?
Its value is -36 mg/dL.

And the “Mean change in GGT (U/L), LS Mean” value ([2]; Modified Efficacy Set, placebo −1, P 0.005)?
Its value is −20 U/L.

And the “Mean change in ALT (U/L), LS Mean” value ([2]; Modified Efficacy Set, placebo −2, P 0.674)?
Its value is −5 U/L.

What about the “Mean change in Body weight (kg), Mean” value ([2]; Safety Set, N 29, placebo −1.1) of the same compound?
The value was -1.6 kg.

And the “Mean change in Body weight (kg), LS Mean” value ([2]; Safety Set, placebo −1.1, P 0.554)?
Its value is -1.6 kg.

What about the “decrease in triglyceride level” value ([2]; P=0.04) of the same compound?
The value was 41 mg/dL.
